Data on two compounds can be found in ChEMBL document CHEMBL1144698, “New approach to measure protein binding based on a parallel artificial membrane assay and human serum albumin” (J Med Chem, 2008).

Holding throughout (format): ADME
Experiment [1] deals with T1, Albumin (Homo sapiens, UniProt P02768). Put plainly: Binding affinity to human serum albumin by PAMPA method.
The target of experiment [2] is T1, Albumin. Put plainly: Binding affinity to 600 uM human serum albumin at 10 uM by PAMPA method. (In PAMPA a lipid-coated filter parts donor from acceptor wells.)
In experiment [3] the target is T1, Albumin. Put plainly: Binding affinity to 100 uM human serum albumin at 50 uM by PAMPA method.
Experiment [4] concerns the target T1, Albumin. Put plainly: Binding affinity to 300 uM human serum albumin at 10 uM by PAMPA method.
The target of experiment [5] is T1, Albumin. Put plainly: Binding affinity to 50 uM human serum albumin at 10 uM by PAMPA method.
Experiment [6] has as its target T1, Albumin. Put plainly: Binding affinity to 100 uM human serum albumin at 10 uM by PAMPA method.

SMILES strings stand for the structures.

T1 sequence (P02768 whole entry): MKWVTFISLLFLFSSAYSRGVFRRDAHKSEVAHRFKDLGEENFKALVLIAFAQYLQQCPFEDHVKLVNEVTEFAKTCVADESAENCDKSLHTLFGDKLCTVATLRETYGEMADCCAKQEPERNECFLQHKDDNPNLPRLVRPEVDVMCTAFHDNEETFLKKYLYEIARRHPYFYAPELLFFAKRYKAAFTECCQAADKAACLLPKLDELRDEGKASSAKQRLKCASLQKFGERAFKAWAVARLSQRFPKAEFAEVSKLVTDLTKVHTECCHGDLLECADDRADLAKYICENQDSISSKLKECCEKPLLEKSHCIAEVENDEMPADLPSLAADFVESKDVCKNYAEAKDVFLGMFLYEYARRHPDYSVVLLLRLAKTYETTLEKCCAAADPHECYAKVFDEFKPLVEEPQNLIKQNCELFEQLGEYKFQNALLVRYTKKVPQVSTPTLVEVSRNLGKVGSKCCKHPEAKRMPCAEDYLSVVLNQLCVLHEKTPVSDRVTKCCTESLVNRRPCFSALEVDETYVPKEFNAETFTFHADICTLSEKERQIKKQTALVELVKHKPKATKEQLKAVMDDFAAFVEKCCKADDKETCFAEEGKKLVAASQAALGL

Consider `CNCCCN1c2ccccc2CCc2ccccc21` [DESIPRAMINE], for which binding in experiment [1] was put at a Kd of 851 µM.
On to `CC(C)NCC(O)COc1cccc2ccccc12` (configuration not stated) [PROPRANOLOL], for which the equilibrium dissociation constant (Kd) – broadly, the equilibrium constant for the complex coming apart – is 631 µM in experiment [2]; 437 µM in experiment [3]; 603 µM in experiment [4]; 355 µM in experiment [5]; 661 µM in experiment [6]; 437 µM in experiment [1].
